Data: paper PMC7822874, “Chemoprotective antimalarials identified through quantitative high-throughput screening of Plasmodium blood and liver stage parasites” (Scientific Reports, 2021)
Where “and” joins values, the source holds several entries; their conditions need not be identical. Identical values can stand only once. Like-named read-outs stand apart in the source and are kept apart here.

Key:
[1] = test system: T1, Plasmodium falciparum Dd2-attB (parental line), asexual blood stages; experiment: microbe, parasite or virus in culture; design: replicate k of 3 (each line is one of three independent assays; the three lines of one compound and parasite line follow each other); conditions: n = 1; for Individual replicates / Log AC50 (M): 72 h; for AC50: Plasmodium falciparum, DD2, 72 h, read-out: Individual replicates / Log AC50 (converted)
T1 construct: Dd2-attB, the isogenic parental line
Procedure: (§1) The overexpression of the fumarate-dependent yeast DHODH confers resistance to compounds that inhibit the parasite mETC, or the parasite DHODH enzyme that depends on ubiquinone provided by the parasite mETC. Assays were performed in three independent assays on a subset of compounds, and differences between the Dd2-attB parental line and the ScDHODH transgenic line were analyzed using two-sided Student’s t-tests.

[2] = test system: T2, Plasmodium falciparum Dd2-attB-ScDHODH (transgenic line expressing yeast DHODH), asexual blood stages; experiment: organism not typed; design: replicate k of 3 (each line is one of three independent assays; the three lines of one compound and parasite line follow each other)
T2 construct: Dd2-attB-ScDHODH, the transgenic line that expresses yeast DHODH
Procedure: as §1

[3] = 72 h; n = 1; read-out: Individual replicates / Log AC50 (converted)

SMILES	Individual replicates / Log AC50 (M) [1]	Individual replicates / Log AC50 (M) ([2]; 72 h, n = 1)	AC50 [1]	Individual replicates / Log AC50 (M) ([2]; 72 h; n = 1)	AC50 [2, 3]	AC50 ([2]; 72 h, read-out: Individual replicates / Log AC50 (M) (converted); n = 1)
CC(=O)Nc1cccc(-c2csc(Nc3cc(C)ccn3)n2)c1 [MLS000550799-02]	-4.7486 Log AC50 (M) and -5.0986 Log AC50 (M) and -4.9486 Log AC50 (M)	-4.7486 Log AC50 (M)				
O=C(CCc1ccccc1)NC(c1cccs1)c1cc(Cl)c2cccnc2c1O (stereo not drawn) [MLS000703748-02]	-5.4486 Log AC50 (M)		3.99 µM	-5.3986 Log AC50 (M)	3.99e-06 M	
CN1CCN(Cc2cc(COCc3ccccc3)c3cccnc3c2O)CC1 [NCGC00052276-02]	-5.1986 Log AC50 (M) and -5.0486 Log AC50 (M)	-5.2986 Log AC50 (M) (2×) and -4.9486 Log AC50 (M)	5.03 µM			
CCc1nc2c(sc3nc4c(cc32)COC(C)(C)C4)c(=O)n1Cc1ccco1 [NCGC00053301-03]			17.8 µM		1e-05 M	
O=C(CC[S+](=O)([O-])c1nc(-c2cccs2)cc(C(F)(F)F)n1)Nc1ccc(OC(F)(F)F)cc1 [NCGC00103927-03]	-4.7986 Log AC50 (M)	-4.8486 Log AC50 (M)	17.8 µM		1.59e-05 M	
CC(C)c1ccc(Nc2c(-c3ccccn3)nc3ccccn23)cc1 [NCGC00104490-03]	-5.1986 Log AC50 (M) and -5.1486 Log AC50 (M)	-5.0986 Log AC50 (M)	5.64 µM		5.64e-06 M	
Cc1cccc2nc(-c3ccccn3)c(Nc3ccc(F)cc3)n12 [NCGC00106061-03]	-5.2986 Log AC50 (M)	-5.2986 Log AC50 (M) and -5.0986 Log AC50 (M)	5.03 µM		5.64e-06 M	
Cc1ccc2nc(-c3ccccn3)c(Nc3ccccc3C)n2c1 [NCGC00106087-03]	-5.3486 Log AC50 (M) and -5.2486 Log AC50 (M)	-5.1986 Log AC50 (M) and -5.1486 Log AC50 (M)	4.48 µM		5.64e-06 M	
Cc1ccc(NC2=C(c3ccc(C(F)(F)F)cc3)C(=O)c3ccccc32)cc1F [NCGC00107266-02]	-6.3986 Log AC50 (M) and -6.3486 Log AC50 (M) (2×)	-5.2986 Log AC50 (M) and -5.1986 Log AC50 (M) and -5.5486 Log AC50 (M)				
Cc1nnc2c3ccccc3nc(N3CCN(c4ccccc4)CC3)n12 [NCGC00107295-01]	-4.7986 Log AC50 (M)		15.9 µM		1.42e-05 M	
Cc1ccc(C)c(NC2=C(c3ccc(C(F)(F)F)cc3)C(=O)c3ccccc32)c1 [NCGC00107302-02]	-5.8486 Log AC50 (M) and -5.6486 Log AC50 (M) (2×)	-5.0486 Log AC50 (M) and -4.9486 Log AC50 (M) and -4.9986 Log AC50 (M)				
O=C1C(c2ccc(C(F)(F)F)cc2)=C(Nc2ccc(Cl)cc2)c2ccccc21 [NCGC00107304-02]	-6.0486 Log AC50 (M) and -5.9486 Log AC50 (M) (2×)	-5.1986 Log AC50 (M) and -5.3486 Log AC50 (M) and -5.6486 Log AC50 (M)				
COc1ccc(NC2=C(c3ccc(C(F)(F)F)cc3)C(=O)c3ccccc32)cc1 [NCGC00107310-02]	-6.3986 Log AC50 (M) and -6.2986 Log AC50 (M) and -6.5486 Log AC50 (M)	-5.1486 Log AC50 (M) and -5.2986 Log AC50 (M)				
Cc1cccc(N2CCN(C(=O)Cn3ncc4c3-c3ccccc3OC4)CC2)c1C [NCGC00112661-03]	-4.9486 Log AC50 (M) and -4.7486 Log AC50 (M)	-4.8986 Log AC50 (M) and -5.0986 Log AC50 (M)				
O=C(/C=C/c1cn(CC(O)CN2CCCCCC2)c2ccccc12)c1ccc(Br)cc1 (stereo not drawn) [NCGC00114921-03]	-5.2486 Log AC50 (M) and -5.0986 Log AC50 (M)	-5.0486 Log AC50 (M) and -5.1986 Log AC50 (M)	4.48 µM		4.48e-06 M	
CCOc1ccc(-c2[nH]c3c(C#N)cnn3c2NC2CCCC2)cc1 [NCGC00120007-02]	-4.7486 Log AC50 (M)	-4.8486 Log AC50 (M)	14.2 µM		1.78e-05 M	
O=C(Nc1ccccc1F)c1ccc(Cn2nc(N3CCN(c4ccccc4)CC3)ccc2=O)o1 [NCGC00127944-02]	-5.1486 Log AC50 (M) and -5.0986 Log AC50 (M)	-5.0986 Log AC50 (M) and -5.0486 Log AC50 (M)	7.97 µM		8.94e-06 M	
COc1cc(CN2CCc3nc(N4CCN(c5ncccn5)CC4)ncc3C2)cc(OC)c1OC [NCGC00131437-02]	-5.3486 Log AC50 (M) and -5.1486 Log AC50 (M)	-5.1486 Log AC50 (M) and -5.0986 Log AC50 (M)	5.64 µM		7.1e-06 M	
CCOc1ccc(NC(=O)c2c(NCc3cccnc3)sc3c2CCCC3)cc1 [NCGC00140582-02]	-5.3486 Log AC50 (M) and -5.2986 Log AC50 (M)	-5.2486 Log AC50 (M) and -5.1486 Log AC50 (M)	5.64 µM		6.33e-06 M	
CCCCN1CCCc2cc(CN(CCCN3CCOCC3)C(=O)Nc3ccc(CC)cc3)ccc21 [NCGC00140595-02]	-5.0986 Log AC50 (M)	-5.0486 Log AC50 (M)	7.97 µM		7.97e-06 M	

SMILES	Individual replicates / Log AC50 (M) [1]	Individual replicates / Log AC50 (M) ([2]; 72 h, n = 1)	AC50 [1]	Individual replicates / Log AC50 (M) ([2]; 72 h; n = 1)	AC50 [2, 3]	AC50 ([2]; 72 h, read-out: Individual replicates / Log AC50 (M) (converted); n = 1)
CCCN1CCCc2cc(CN(CCCN3CCOCC3)C(=O)Nc3ccc(Cl)c(Cl)c3)ccc21 [NCGC00140597-02]	-5.3486 Log AC50 (M) and -5.2986 Log AC50 (M)	-5.3986 Log AC50 (M) and -5.0986 Log AC50 (M)	3.99 µM		3.99e-06 M	
Oc1ccc(CNc2cccc(C(F)(F)F)c2)c2cccnc12 [NCGC00177833-02]		-4.7486 Log AC50 (M)	17.8 µM		1.59e-05 M	
Oc1ccc(CNCc2ccc3c(c2)OCO3)c2cccnc12 [NCGC00183368-01]	-4.7986 Log AC50 (M)	-4.7486 Log AC50 (M)	15.9 µM		1.59e-05 M	
CN1CCN(C2CCN(Cc3ccc(O)c4ncccc34)CC2)CC1 [NCGC00183373-01]			17.8 µM		1.59e-05 M	
Oc1ccc(CNc2cccc(F)c2F)c2cccnc12 [NCGC00183376-01]	-4.7486 Log AC50 (M)		17.8 µM	-4.7486 Log AC50 (M)	1.78e-05 M	
Oc1ccc(COc2cccc3ccccc23)c2cccnc12 [NCGC00183380-01]	-4.7986 Log AC50 (M) and -4.7486 Log AC50 (M)		20 µM			1.59e-05 M
Oc1ccc(COCc2ccc(F)cc2)c2cccnc12 [NCGC00183381-01]	-4.7986 Log AC50 (M)	-4.7486 Log AC50 (M) and -4.7986 Log AC50 (M)	17.8 µM		1.59e-05 M	
Oc1cc(Nc2ccncc2)cc2cccnc12 [NCGC00183791-01]	-4.7486 Log AC50 (M) and -4.7986 Log AC50 (M)	-4.7486 Log AC50 (M)	20 µM		2e-05 M	
CN(C)c1ccc(-c2cc(O)c3ncccc3c2)cc1 [NCGC00183795-01]	-5.0986 Log AC50 (M) and -5.1486 Log AC50 (M)	-4.7486 Log AC50 (M) and -4.9986 Log AC50 (M)	8.94 µM			
Oc1cc(NCCN2CCOCC2)cc2cccnc12 [NCGC00183799-01]	-5.1486 Log AC50 (M) and -5.2486 Log AC50 (M)		6.33 µM		8.94e-06 M	
O=C(Nc1ccccc1F)c1ccc(O)c2ncccc12 [NCGC00183800-01]	-5.1986 Log AC50 (M) and -5.2486 Log AC50 (M)	-5.2986 Log AC50 (M) and -5.0486 Log AC50 (M)	7.1 µM		5.64e-06 M	
CN(C)CCCNC(=O)c1ccc(-c2cc(O)c3ncccc3c2)cc1 [NCGC00183808-03]	-4.9486 Log AC50 (M) and -4.8986 Log AC50 (M)	-4.8486 Log AC50 (M)	14.2 µM		1.26e-05 M	
Oc1ccc(NCc2ccccc2F)c2cccnc12 [NCGC00184883-01]	-5.0986 Log AC50 (M) and -5.0486 Log AC50 (M)	-5.0986 Log AC50 (M)	12.6 µM		1.26e-05 M	
Oc1ccc(Nc2ccccc2F)c2cccnc12 [NCGC00184886-01]	-5.6486 Log AC50 (M) and -5.5486 Log AC50 (M)	-5.5986 Log AC50 (M)	3.56 µM		4.48e-06 M	
O=[S+]([O-])(Nc1ccc(O)c2ncccc12)c1ccccc1F [NCGC00184887-01]	-5.0986 Log AC50 (M) and -5.1486 Log AC50 (M)		14.2 µM		1.42e-05 M	
Oc1ccc(CNc2ccc(C(F)(F)F)cc2F)c2cccnc12 [NCGC00184889-01]			20 µM		1.78e-05 M	
Oc1ccc(CNc2ccccc2Cl)c2cccnc12 [NCGC00184891-01]	-4.6986 Log AC50 (M)	-4.7486 Log AC50 (M)	15.9 µM		1.42e-05 M	
O=C(NCCCN1CC[S+](=O)([O-])CC1)c1cccc(-c2cc(O)c3ncccc3c2)c1 [NCGC00249378-01]				-4.6986 Log AC50 (M)	2e-05 M	
Cc1nn2c(c1-c1ccnn1C(C)C)N(CCCc1ccccc1)CCC2 [NCGC00499719-01]					1.78e-05 M	
